Source: article PMC3726442 (PLoS ONE, 2013)
Blank lines part the entries; values can stand above or below the compound they belong to.

Test: Plasma concentrations of tamoxifen and its metabolites in breast cancer patients on tamoxifen, by HPLC-tandem mass spectrometry
[1] = all samples analyzed, n = 125, before daily 20 mg TAM dose

From the text: One hundred and thirty five Caucasian patients of Spanish descent recently diagnosed with BC were recruited from the center Fundación Tejerina-Centro de Patología de la Mama (Madrid). Premenopausal and postmenopausal women were enrolled when started on TAM as standard adjuvant therapy after undergoing primary surgery, radiation and adjuvant chemotherapy. Patients were excluded if they had started TAM therapy simultaneously with either adjuvant chemotherapy or adjuvant radiation therapy (or both) or if they were undergoing other adjuvant endocrine therapies. Patients who were pregnant or breast-feeding were also excluded from the study. […] Blood samples were collected within 3 to 60 months of initiating TAM treatment.
Venous blood was collected from all 135 subjects before taking their daily 20- mg dose of TAM. Ten milliliters of heparin plasma were separated by centrifugation and immediately stored at −20°C until analysis. In addition, one milliliter of an EDTA blood sample was taken for subsequent DNA extraction and genotyping. DNA was isolated from peripheral leukocytes using a QIAamp DNA Blood Mini Kit® (Qiagen, Madrid, Spain) according to the manufacturer’s instructions. The DNA concentration was determined and adjusted to 2–20 ng/ µL.
TAM and its metabolites were separated and quantified by high-pressure liquid chromatography-tandem mass spectrometry using an Agilent HPLC 1200 system. HPLC experiments were performed using a binary pump G1312A, a G1316A column oven, G1379B degasser and an automatic injector H-ALS G1367B. Mobile phase A and phase B consisted of 0.1% formic acid in water and acetonitrile, respectively. Mobile phases A and B were pumped through a ZORBAX Eclipse XDB-C18 column (150 mm×2.1 mm I.D., 3.5 µm, Agilent USA) at a flow rate of 0.2 mL/min using the gradient shown in Table 1. Separation was conducted at 30°C. 15- µL aliquots were injected and the autosampler needle was rinsed in acetonitrile/water solution (1∶1). The total run time was 20 min. During the first 4.0 and last 2.0 min, the eluate was removed using a divert valve to avoid endogenous compounds entering the mass spectrometer.
As a detector, we used an A 6410 Triple Quadrupole mass spectrometer (Agilent Technologies, USA) equipped with a heated electrospray ionization source (Thermo Fisher Scientific, Waltham, MA, USA) operating in positive ion mode. For quantification, multiple reaction monitoring (MRM) chromatograms were acquired using Mass Hunter software version B.01.04 (Agilent Technologies, USA). Positive ions were created at atmospheric pressure. Quadrupoles operated at unit resolution (0.7 Da).
A 300- µL volume of 1% formic acid in acetonitrile containing internal standards was added to a 100- µL serum aliquot. After vortexing and centrifugation, the clear supernatant was transferred to a HybridSPE column (Supelco) and the eluents stored at 2–8°C until analysis. Samples were analyzed in triplicate.
Descriptive statistics were calculated using standard methods. Metabolic ratios were calculated as the concentration of substrate/concentration of metabolite. The non-normal distribution of data was confirmed by the Kolmogorov-Smirnov test. Levels of TAM, metabolites and ratios between genotype groups were compared using Wilcoxon-Mann-Whitney or Kruskal-Wallis tests. All statistical tests (two-sided) were performed using SPSS software (version 18.0 SPSS, Chicago, IL). Significance was set at a p<0.05.

plasma concentration, mean ±SD (genotype CYP2D6 I/I, n = 1): 130.54 ± 0.00 ng/mL
plasma concentration, median (genotype CYP2D6 I/I, n = 1): 130.54 ng/mL
plasma concentration, range (genotype CYP2D6 I/I, n = 1): (130.54–130.54) ng/mL
plasma concentration, range (genotype CYP2D6 I/P, n = 8): (88.08–289.96) ng/mL
plasma concentration, mean ±SD (genotype CYP2D6 P/P, n = 2): 278.43 ± 132.13 ng/mL
plasma concentration, median (genotype CYP2D6 P/P, n = 2): 278.43 ng/mL
plasma concentration, range (genotype CYP2D6 P/P, n = 2): (185.00–371.83) ng/mL
plasma concentration, mean ±SD (genotype CYP2D6 wt/I, n = 4): 208.48 ± 66.06 ng/mL
plasma concentration, range (genotype CYP2D6 wt/I, n = 4): (151.94–302.03) ng/mL
plasma concentration, mean ±SD (genotype CYP2D6 wt/P, n = 26): 209.57 ± 121.53 ng/mL
plasma concentration, range (genotype CYP2D6 wt/P, n = 26): (89.79–576.23) ng/mL
plasma concentration, mean ±SD (genotype CYP2D6 wt/wt, n = 78): 203.05 ± 80.53 ng/mL
plasma concentration, range (genotype CYP2D6 wt/wt, n = 78): (77.10–573.83) ng/mL
plasma concentration, range (genotype CYP2D6 wtxN/P, n = 2): (102.91–264.41) ng/mL
plasma concentration, mean ±SD (genotype CYP3A4 wt/*1B, n = 3): 260.69 ± 136.19 ng/mL
plasma concentration, median (genotype CYP3A4 wt/*1B, n = 3): 261.00 ng/mL
plasma concentration, range (genotype CYP3A4 wt/*1B, n = 3): (124.35–396.73) ng/mL
plasma concentration, mean ±SD (genotype CYP3A4 wt/*3, n = 2): 212.83 ± 68.55 ng/mL
plasma concentration, median (genotype CYP3A4 wt/*3, n = 2): 212.83 ng/mL
plasma concentration, range (genotype CYP3A4 wt/*3, n = 2): (164.35–261.30) ng/mL
plasma concentration, mean ±SD (genotype CYP3A4 wt/*17, n = 9): 230.28 ± 153.17 ng/mL
plasma concentration, range (genotype CYP3A4 wt/*17, n = 9): (88.08–573.83) ng/mL
plasma concentration, mean ±SD (genotype CYP3A4 wt/wt, n = 107): 198.93 ± 89.59 ng/mL
plasma concentration, range (genotype CYP3A4 wt/wt, n = 107): (77.10–576.23) ng/mL
plasma concentration, mean ±SD (genotype CYP3A5 *3/*3, n = 117): 204.98 ± 96.33 ng/mL
plasma concentration, range (genotype CYP3A5 *3/*3, n = 117): (77.10–576.23) ng/mL
plasma concentration, mean ±SD (genotype CYP3A5 wt/*3, n = 6): 164.16 ± 51.72 ng/mL
plasma concentration, median (genotype CYP3A5 wt/*3, n = 6): 160.17 ng/mL
plasma concentration, range (genotype CYP3A5 wt/*3, n = 6): (112.43–235.19) ng/mL
plasma concentration, mean ±SD (genotype SULT1A1 *2/*2, n = 15): 205.87 ± 101.52 ng/mL
plasma concentration, median (genotype SULT1A1 *2/*2, n = 15): 161.90 ng/mL
plasma concentration, range (genotype SULT1A1 *2/*2, n = 15): (102.43–396.73) ng/mL
plasma concentration, mean ±SD (genotype SULT1A1 wt/*2, n = 46): 204.84 ± 107.12 ng/mL
plasma concentration, range (genotype SULT1A1 wt/*2, n = 46): (77.10–573.83) ng/mL
plasma concentration, mean ±SD (genotype SULT1A1 wt/wt, n = 60): 200.92 ± 86.14 ng/mL
plasma concentration, range (genotype SULT1A1 wt/wt, n = 60): (88.08–576.23) ng/mL
plasma concentration, range (genotype SULT1A2 *2/*2, n = 16): (95.67–396.73) ng/mL
plasma concentration, mean ±SD (genotype SULT1A2 *2/*3, n = 13): 222.50 ± 93.29 ng/mL
plasma concentration, median (genotype SULT1A2 *2/*3, n = 13): 240.78 ng/mL
plasma concentration, range (genotype SULT1A2 *2/*3, n = 13): (112.43–371.37) ng/mL
plasma concentration, median (genotype SULT1A2 *3/*3, n = 5): 164.35 ng/mL
plasma concentration, range (genotype SULT1A2 *3/*3, n = 5): (122.20–302.03) ng/mL
plasma concentration, mean ±SD (genotype SULT1A2 wt/*2, n = 33): 227.33 ± 131.55 ng/mL
plasma concentration, range (genotype SULT1A2 wt/*2, n = 33): (88.08–576.23) ng/mL
plasma concentration, range (genotype SULT1A2 wt/*3, n = 16): (89.79–378.32) ng/mL
plasma concentration, range (genotype SULT1A2 wt/wt, n = 38): (77.10–375.04) ng/mL
plasma concentration, mean ±SD (genotype SULT1E1 *2/*2, n = 5): 232.36 ± 83.23 ng/mL
plasma concentration, median (genotype SULT1E1 *2/*2, n = 5): 202.74 ng/mL
plasma concentration, range (genotype SULT1E1 *2/*2, n = 5): (166.20–375.04) ng/mL
plasma concentration, mean ±SD (genotype SULT1E1 wt/*2, n = 28): 200.49 ± 77.50 ng/mL
plasma concentration, range (genotype SULT1E1 wt/*2, n = 28): (77.10–368.73) ng/mL
plasma concentration, mean ±SD (genotype SULT1E1 wt/wt, n = 88): 202.17 ± 101.97 ng/mL
plasma concentration, range (genotype SULT1E1 wt/wt, n = 88): (89.79–576.23) ng/mL
Compound: CC/C(=C(\c1ccccc1)c1ccc(OCCN(C)C)cc1)c1ccccc1 [Tamoxifen, reference compound]

mean plasma concentration (±SD) [1]: 50.88 ± 23.09 ng/mL
plasma concentration, mean ±SD (genotype CYP2D6 wt/P, n = 26): 54.04 ± 25.63 ng/mL
plasma concentration, mean ±SD (genotype SULT1A1 *2/*2, n = 15): 56.02 ± 24.50 ng/mL
plasma concentration, median (genotype SULT1A1 *2/*2, n = 15): 59.27 ng/mL
plasma concentration, range (genotype SULT1A1 *2/*2, n = 15): (15.69–99.37) ng/mL
plasma concentration, mean ±SD (genotype SULT1A1 wt/*2, n = 46): 51.02 ± 27.88 ng/mL
plasma concentration, median (genotype SULT1A1 wt/*2, n = 46): 41.84 ng/mL
plasma concentration, range (genotype SULT1A1 wt/*2, n = 46): (17.43–142.97) ng/mL
plasma concentration, mean ±SD (genotype SULT1A1 wt/wt, n = 60): 48.69 ± 18.93 ng/mL
plasma concentration, range (genotype SULT1A1 wt/wt, n = 60): (15.69–106.35) ng/mL
plasma concentration, mean ±SD (genotype SULT1A2 *2/*2, n = 16): 47.18 ± 20.97 ng/mL
plasma concentration, median (genotype SULT1A2 *2/*2, n = 16): 50.56 ng/mL
plasma concentration, range (genotype SULT1A2 *2/*2, n = 16): (15.69–81.94) ng/mL
plasma concentration, mean ±SD (genotype SULT1A2 *2/*3, n = 13): 46.94 ± 17.33 ng/mL
plasma concentration, range (genotype SULT1A2 *2/*3, n = 13): (17.43–90.66) ng/mL
plasma concentration, mean ±SD (genotype SULT1A2 *3/*3, n = 5): 38.35 ± 10.17 ng/mL
plasma concentration, range (genotype SULT1A2 *3/*3, n = 5): (26.15–50.56) ng/mL
plasma concentration, mean ±SD (genotype SULT1A2 wt/*2, n = 33): 60.87 ± 31.96 ng/mL
plasma concentration, median (genotype SULT1A2 wt/*2, n = 33): 54.04 ng/mL
plasma concentration, range (genotype SULT1A2 wt/*2, n = 33): (20.53–142.97) ng/mL
plasma concentration, mean ±SD (genotype SULT1A2 wt/*3, n = 16): 47.29 ± 17.70 ng/mL
plasma concentration, median (genotype SULT1A2 wt/*3, n = 16): 46.20 ng/mL
plasma concentration, range (genotype SULT1A2 wt/*3, n = 16): (19.18–83.68) ng/mL
plasma concentration, mean ±SD (genotype SULT1A2 wt/wt, n = 38): 47.65 ± 19.19 ng/mL
plasma concentration, median (genotype SULT1A2 wt/wt, n = 38): 42.71 ng/mL
plasma concentration, range (genotype SULT1A2 wt/wt, n = 38): (15.69–99.37) ng/mL
plasma concentration, mean ±SD (genotype SULT1E1 *2/*2, n = 5): 49.86 ± 8.94 ng/mL
plasma concentration, mean ±SD (genotype SULT1E1 wt/*2, n = 28): 47.65 ± 19.38 ng/mL
plasma concentration, median (genotype SULT1E1 wt/*2, n = 28): 47.94 ng/mL
plasma concentration, range (genotype SULT1E1 wt/*2, n = 28): (20.53–90.66) ng/mL
plasma concentration, mean ±SD (genotype SULT1E1 wt/wt, n = 88): 51.48 ± 25.13 ng/mL
plasma concentration, range (genotype SULT1E1 wt/wt, n = 88): (15.69–142.97) ng/mL
Compound: CC/C(=C(\c1ccccc1)c1ccc(OCC[N+](C)(C)[O-])cc1)c1ccccc1 [Tamoxifen-N-oxide, tamoxifen-N-oxide]

median plasma concentration [1]: 6.75 ng/mL
Compound: 4-hydroxy-tamoxifen [4-OH-tamoxifen]
